One compound from patent US7741281B2, “Hepatitis C virus inhibitors” (Bristol-Myers Squibb Company, priority 2005, dated 2010) can be followed below.

The test deals with HCV replicon (Renilla luciferase) in HUH-7 cells. The test can be described thus: HCV replicon luciferase reporter assay. The class given is cell-based, HCV strain 1b. The settings on record: Huh-7, 96 h, 4 days. The source says: An HCV replicon whole cell system was established as described by Lohmann V, Korner F, Koch J, Herian U, Theilmann L, Bartenschlager R., Science 285(5424):110-3 (1999). This system enabled us to evaluate the effects of our HCV Protease compounds on HCV RNA replication. Briefly, using the HCV strain 1b sequence described in the Lohmann paper (Assession number: AJ238799), an HCV cDNA was synthesized by Operon Technologies, Inc. (Alameda, Calif.), and the full-length replicon was then assembled in plasmid pGem9zf(+) (Promega, Madison, Wis.) using standard molecular biology techniques. […]
As a secondary assay, EC50 determinations from the replicon FRET assay were confirmed in a replicon luciferase reporter assay. […] Following 4 days in a 37° C./5% CO2 incubator, cells were analyzed for Renilla Luciferase activity using the Promega Dual-Glo Luciferase Assay System. […] Plates were read on a Packard TopCount NXT using a luminescence program.
The percentage inhibition was calculated using the formula below: % control=average luciferase signal in experimental wells (+compound)
average luciferase signal in DMSO control wells (−compound) The values were graphed and analyzed using XLfit to obtain the EC50 value.
Background: Replicon systems follow genome replication, usually without infectious particles.

`COc1c(O[C@@H]2C[C@H]3C(=O)N[C@]4(C(=O)NS(=O)(=O)C5CC5)C[C@H]4/C=C\CCCCC[C@H](NC(=O)OC(C)(C)C)C(=O)N3C2)ccc2c(Cl)nccc12` [Compound 3] returned a half-maximal effective concentration (EC50) of 5.5 nM.

As usually defined, the EC50 is the concentration needed to bring the measured effect to its halfway point. Higher therefore signals a need for much substance.
